Measured values taken from patent US8215314B2, “Photochemical tissue bonding” (The General Hospital Corporation, priority 2000, dated 2012).
Entries after “also recorded” stand apart in the source; their conditions may differ.

Key:
[1] = system: rabbit corneas; assay: In vivo PTB of 6-mm penetrating keratoplasty incisions anchored by sutures, bursting pressure; details: 1% Rose Bengal, 191 J/cm2, 6-mm PK incision with 4-16 sutures
Procedure: PTB was performed in vivo in New Zealand rabbits to repair two types of corneal wounds.
In Group II, 6-mm Penetrating Keratoplasy (PK) incisions anchored by 4-16 sutures were performed in 16 rabbit corneas. Half of the corneas in each group underwent PTB where 1% Rose Bengal dye was applied to the wound edges followed by laser irradiation at fluence of 191 J/cm2. Photoactivation was performed with a 514 nm Argon Laser and a 532-nm CW Nd: YAG laser. Wound leak and incisional bursting pressure were determined in vivo in the immediate postoperative period.

[2] = system: pig vein and arteries; assay: Ex vivo porcine blood vessel anastomosis by PTB (cuff approach), tensile strength; details: 0.1% v/v in saline, 532 nm, 0.5 W/cm2 for 2.5 minutes
Source text: In adhering segments of vascular tissue according to methods of the invention, two pieces of blood vessel are joined and photochemically bonded together to create an intimate, watertight seal. Two methods were considered to accomplish anastomosis. The “cuff” approach, which entails administration of the photoactive dye to the outer surface of the proximal vessel and the inside surface of the distal stump of the vessel. The distal stump is folded back on itself and the proximal stump brought into contact. The distal cuff is then placed over the proximal vessel to form a cuff. The overlap region in the cuff is then irradiated with visible light to bond the ends of the vessel together. FIG. 30 represents a schematic overview of the cuff approach.
The cuff approach was used with pig vein and arteries ex vivo. The vessels were sharply transected using a scalpel. Rose bengal at a concentration of 0.1% v/v in saline was applied to the outside surface of the proximal stump of the vessel and the inside surface of the distal vessel. The vessels were then mounted over a cylindrical glass rod that acts as support for the hollow vessels. A distal cuff was formed by folding the end of the distal end back on itself, as described above and in FIG. 30. […]

[3] = system: cornea; assay: Examination of eyes for thermal damage after PTB (tissue shrinkage, deformation); set-up: species or system rabbit; details: RB PTB
Source text: Post-treatment, the eyes were examined for the presence of thermal damage. Tissue shrinkage and deformation around the wound site were taken as signs of thermal damage. Thermal damage to the cornea was not observed at the lowest irradiance tested (1.27 W/cm2). […] Thermal effects produced using high irradiances may produce collagen contraction resulting in distortion of the patient's vision.

[4] = system: epidermal cells of skin grafts; assay: Trypan blue exclusion assay of epidermal cells from skin grafts after PTB; format: cell-based, mini pigs; details: 0.1% RB
Procedure: The cell viability in the skin grafts was further assessed quantitatively by trypan blue exclusion assay. The upper grafts were chosen to be examined because they absorbed more light, and therefore would be damaged to a greater extent, if any, than the lower ones. Following irradiation, the upper skin grafts were incubated with 1 mg/ml dispase (Life Technologies, Rockville, Md.) in PBS overnight at 4° C. The epidermis was gently peeled off from the dermis and washed twice in PBS. Epidermal cells were released by incubating the epidermis with 0.25% trypsin-EDTA (Cellgro) at 37° C. for 15 minutes, accompanied by gentle agitation. Fetal calf serum (FCS) was added to inhibit trypsin activity and the cell suspension was then centrifuged at 2500 rpm for 10 mins. The cell pellet was washed once and re-suspended in PBS. The trypan blue exclusion assay was performed after mixing equal volumes of cell suspension and 0.2% (w/v) trypan blue and loading onto a hemocytometer. The number of viable cells released from each skin graft was calculated. After preparing a single cell suspension from intact epidermis, the cell viability was assessed (FIG. 11).

[5] = system: bovine achilles tendons; assay: PTB of ruptured bovine achilles tendons in vitro, ultimate stress and stiffness; details: for Mean change in stiffness % (95% CI) / Mean change in ultimate stress % (95% CI): relative to healthy tendon
Procedure: To test the ability of PTB to quickly and effectively bond ruptured tendons, an in vitro model utilizing bovine tendons was developed. The use of bovine models in wound healing is well known by those skilled in the art. The similarities between bovine wound healing and that of humans enables one to extrapolate the therapeutic results obtained in a bovine model system to a therapeutic result in humans.
Fresh bovine achilles tendons were obtained and stored at […] until use. The tendon was cut into dumbbell-shaped 5 cm strips with the central 3 cm strip at an approximate cross-sectional area of 1 mm by 1 mm, and were irrigated constantly with phosphate buffered saline (PBS) to prevent desiccation.
Rupture of the tendon was induced by weakening the central 1 cm of the tendon with a surgical blade and mechanically pulling it apart. A solution of Rose Bengal at various concentrations (0.1, 0.5 and 1.0% weight per volume in PBS) was applied to the ends of the ruptured tendons for two minutes, after which the ruptured ends were approximated and the excess dye was removed.
The ruptured ends of the tendon were crossed over each other with an overlap of approximately 1 cm before being wrapped by several layers of tissue paper. The tissue wrapped tendon was rolled and pressed in order to approximate the ruptured ends and remove the excess dye. The tissue paper was carefully removed before the tendon was placed between two glass slides that were then clipped together.
The center of the approximated tendon was irradiated with an argon laser (514 nm), having a spot size of 1 cm in diameter, which was transmitted through an optic fiber. The laser was applied with an irradiance of 0.5, 1.0, or 1.5 W/cm^2, while the fluence of laser energy applied was 125, 250, 500, or 750 J/cm^2. The exposure time ranged from 1 min and 23 seconds to 25 minutes.
Control tendons were ruptured in the same manner, however treatments consisted of application of Rose Bengal and approximation of the tendon ends without laser irradation, approximation of the tendon ends with laser irradiation but no exposure to rose bengal, and approximation of the ends with no further treatment.
To test the effectiveness of the photochemical tissue bonding, immediately after photochemical tissue bonding, the tendon strips were attached to the fixture of a tensiometer, which was coupled to a force transducer (FIG. 17). The tendon was held at a straight and vertical position, and cyclic loading of the tendon was conducted by stretching the tendon for a magnitude of 0.5 mm for 6 cycles. The tendon was brought back to a zero deflection position before being pulled to failure at a constant speed of 100 mm/min. The peak force needed to rupture the tendon was recorded, and a typical force-deflection curve was obtained (FIG. 18). The ultimate stress and stiffness (peak force for tendon rupture normalized by the cross-sectional area, and slope of the linear region of the force-deflection curve, respectively) were calculated from the force-deflection curve.
Healthy tendons were also placed in the tensiometer, and were pulled to the point of failure. Following failure, they were treated with photochemical tissue bonding at 500 J/cm^2 fluence and again pulled to failure to study the percentage of recovery of mechanical properties. Immediately after the photochemical tissue bonding, the ultimate stress and the stiffness returned to approximately 59.66% and 52.75% of the healthy tendon, respectively (Table 1).

[6] = argon laser 514 nm and Rose Bengal
[7] = higher Rose Bengal concentrations (0.0, 0.1, 0.5, 1.0% w/v in PBS)

## O=C([O-])c1c(Cl)c(Cl)c(Cl)c(Cl)c1-c1c2cc(I)c(=O)c(I)c-2oc2c(I)c([O-])c(I)cc12.[Na+].[Na+] [Rose Bengal]
[1]
  immediate bursting pressure: 410±70 mm Hg
[2]
  stretch of anastomosed vessels before rupture: 3-4 times their normal length
[3]; 2.55 W/cm2
  thermal damage to the cornea: occasionally
[3]; 762 to 1524 J/cm2 at 3.82 W/cm2
  thermal damage to the cornea: could be observed
[3]; lowest irradiance 1.27 W/cm2
  thermal damage to the cornea: not observed
[4]; 0.56 W/cm^2, 126, 252 and 504 J/cm^2
  number of viable cells per skin graft vs control: not significantly different
[4]; 504 J/cm^2
  number of viable cells relative to control group: ~80%
[5]; 1.0% Rose Bengal
  dehydration of the tendon: dehydration of the tendon was noticed
[5]; Dye control (dye, no laser)
  Mean change in stiffness % (95% CI): 20.65 (10.16, 31.14) %
  Mean change in ultimate stress % (95% CI): 24.18 (6.57, 41.79) %
[5]; Laser + Dye, 500 J/cm^2
  Mean change in stiffness % (95% CI): 52.75 (24.05, 81.45) %
  Mean change in ultimate stress % (95% CI): 59.66 (8.71, 110.61) %
[5]; [6]
  stiffness of ruptured tendon vs controls: significantly increased; also recorded: significant increase
  ultimate stress of ruptured tendon vs controls: significantly increased; also recorded: significant increase
[5]; [7]
  stiffness of ruptured tendon: significant increase
  ultimate stress of ruptured tendon: significant increase
